We go through one compound from PMC6599039, “Structural and functional analysis of the role of the chaperonin CCT in mTOR complex assembly” (Nature Communications, 2019).

This experiment has as its target T1, CCT8 in the human mLST8-CCT complex (Homo sapiens, UniProt P50990).
T1 construct: isolated from HEK-293T cells co-expressing His6-myc-PhLP1; no nucleotide added; with T-complex protein 1 subunit alpha; T-complex protein 1 subunit beta; T-complex protein 1 subunit gamma; T-complex protein 1 subunit delta; T-complex protein 1 subunit epsilon; T-complex protein 1 subunit zeta; T-complex protein 1 subunit eta; Target of rapamycin complex subunit LST8
T1 sequence (P50990 2-548): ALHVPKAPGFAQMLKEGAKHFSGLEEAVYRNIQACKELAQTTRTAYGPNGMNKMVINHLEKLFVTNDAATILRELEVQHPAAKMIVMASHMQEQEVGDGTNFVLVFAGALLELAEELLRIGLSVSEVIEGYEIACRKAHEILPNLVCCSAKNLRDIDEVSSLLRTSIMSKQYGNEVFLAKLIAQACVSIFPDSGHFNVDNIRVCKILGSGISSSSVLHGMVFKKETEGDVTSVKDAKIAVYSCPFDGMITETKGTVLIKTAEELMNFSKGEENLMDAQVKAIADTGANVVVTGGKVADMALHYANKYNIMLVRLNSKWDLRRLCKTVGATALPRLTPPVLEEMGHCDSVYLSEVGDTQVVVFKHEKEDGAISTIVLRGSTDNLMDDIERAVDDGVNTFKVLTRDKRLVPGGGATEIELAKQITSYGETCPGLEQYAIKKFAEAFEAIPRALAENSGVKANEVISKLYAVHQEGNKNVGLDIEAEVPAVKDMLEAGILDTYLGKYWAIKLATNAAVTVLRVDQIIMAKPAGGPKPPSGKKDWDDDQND
Briefly: cryo-EM structure of the complex ([…] A). The settings on record: co-purified nucleotide, none added; equatorial nucleotide-binding pocket of both CCT8 subunits.

For the compound `Nc1ncnc2c1ncn2[C@@H]1O[C@H](COP(=O)(O)OP(=O)(O)O)[C@@H](O)[C@H]1O` [ADP], the “cryo-EM structure of the complex (4.0 A)” value was “nucleotide-binding pocket of either of the CCT8 subunits revealed electron density that is clearly attributable to ADP”.
